# Reference: publication PMC5218480 (PLoS ONE, 2017)
# Tested on: MV-4-11 cells
# Assay: Gene expression microarray analysis (Affymetrix PrimeView) and GSEA
# Type: cell-based, human
# Parameters: RFU PODN (11730768_x_at) / Fold change /veh PODN (11730768_x_at) / RFU LINC00158 (11744669_a_at) / Fold change /veh LINC00158 (11744669_a_at) / RFU DUSP10 (11751237_a_at) / Fold change /veh DUSP10 (11751237_a_at) / RFU ID3 (11757404_x_at) / Fold change /veh ID3 (11757404_x_at) / RFU PLEKHG5 (11737974_s_at) / Fold change /veh PLEKHG5 (11737974_s_at) / RFU LRRC4B (11730491_at) / Fold change /veh LRRC4B (11730491_at) / RFU GIMAP4 (11747438_a_at) / Fold change /veh GIMAP4 (11747438_a_at) / RFU KRT8 (11758183_x_at) / Fold change /veh KRT8 (11758183_x_at) / RFU CNN1 (11734310_a_at) / Fold change /veh CNN1 (11734310_a_at) / RFU VPS37D (11726825_at) / Fold change /veh VPS37D (11726825_at) / RFU C10orf10 (11716522_x_at) / Fold change /veh C10orf10 (11716522_x_at) / RFU KIR2DL2 /// KIR2DL4 /// KIR2DL5A /// KIR2DL5B /// KIR2DS1 /// KIR2DS2 /// KIR2DS3 /// KIR2DS4 /// KIR3DL3 /// KIR3DL3 /// KIR3DS1 (11738374_at) / Fold change /veh KIR2DL2 /// KIR2DL4 /// KIR2DL5A /// KIR2DL5B /// KIR2DS1 /// KIR2DS2 /// KIR2DS3 /// KIR2DS4 /// KIR3DL3 /// KIR3DL3 /// KIR3DS1 (11738374_at) / RFU C1QL1 (11718748_at) / Fold change /veh C1QL1 (11718748_at) / RFU TMPRSS4 (11747572_a_at) / Fold change /veh TMPRSS4 (11747572_a_at) / RFU HAMP (11756126_x_at) / Fold change /veh HAMP (11756126_x_at) / RFU RNFT2 (11725882_a_at) / Fold change /veh RNFT2 (11725882_a_at) / RFU NR4A2 (11747474_a_at) / Fold change /veh NR4A2 (11747474_a_at) / RFU ABCC12 (11746883_a_at) / Fold change /veh ABCC12 (11746883_a_at) / RFU TMEM136 (11760407_x_at) / Fold change /veh TMEM136 (11760407_x_at) / RFU CLDN22 /// WWC2 (11732394_at) / Fold change /veh CLDN22 /// WWC2 (11732394_at) / RFU HLA-DPB1 (11760878_x_at) / Fold change /veh HLA-DPB1 (11760878_x_at) / RFU SPINT1 (11716480_a_at) / Fold change /veh SPINT1 (11716480_a_at) / RFU GAP43 (11754022_s_at) / Fold change /veh GAP43 (11754022_s_at) / RFU A4GNT (11735810_at) / Fold change /veh A4GNT (11735810_at) / RFU PRB3 (11715151_x_at) / Fold change /veh PRB3 (11715151_x_at) / RFU TUBB4B (11761932_at) / Fold change /veh TUBB4B (11761932_at) / RFU CAPN14 (11732068_a_at) / Fold change /veh CAPN14 (11732068_a_at) / RFU TMCC2 (11721928_a_at) / Fold change /veh TMCC2 (11721928_a_at) / RFU IRGQ (11745062_a_at) / Fold change /veh IRGQ (11745062_a_at) / RFU FAM174B (11720279_a_at) / Fold change /veh FAM174B (11720279_a_at) / RFU TMPRSS4 (11748680_a_at) / Fold change /veh TMPRSS4 (11748680_a_at) / RFU FAM212B (11763350_a_at) / Fold change /veh FAM212B (11763350_a_at) / RFU PLEKHG5 (11743358_a_at) / Fold change /veh PLEKHG5 (11743358_a_at) / RFU ZSCAN30 (11745921_a_at) / Fold change /veh ZSCAN30 (11745921_a_at) / RFU CMKLR1 (11741424_a_at) / Fold change /veh CMKLR1 (11741424_a_at) / RFU LOC101060620 /// MAPK8IP1 (11723275_at) / Fold change /veh LOC101060620 /// MAPK8IP1 (11723275_at) / RFU SPTSSB (11747773_x_at) / Fold change /veh SPTSSB (11747773_x_at) / RFU PRSS12 (11739890_at) / Fold change /veh PRSS12 (11739890_at) / RFU BIN1 (11741810_x_at) / Fold change /veh BIN1 (11741810_x_at) / RFU WNT11 (11732464_a_at) / Fold change /veh WNT11 (11732464_a_at) / RFU C10orf10 (11716521_a_at) / Fold change /veh C10orf10 (11716521_a_at) / RFU C5orf56 (11738089_at) / Fold change /veh C5orf56 (11738089_at) / RFU CYB561 (11721691_x_at) / Fold change /veh CYB561 (11721691_x_at) / RFU ANKRD19P (11752326_a_at) / Fold change /veh ANKRD19P (11752326_a_at) / RFU OR2T12 /// OR2T33 /// OR2T8 (11738714_s_at) / Fold change /veh OR2T12 /// OR2T33 /// OR2T8 (11738714_s_at) / RFU VCAN (11748164_a_at) / Fold change /veh VCAN (11748164_a_at) / RFU JSRP1 (11732532_at) / Fold change /veh JSRP1 (11732532_at) / RFU KRTAP10-11 (11738290_x_at) / Fold change /veh KRTAP10-11 (11738290_x_at) / RFU MYO3A (11730013_a_at) / Fold change /veh MYO3A (11730013_a_at) / RFU EBF3 (11725865_a_at) / Fold change /veh EBF3 (11725865_a_at) / RFU CAMK2N1 (11719241_x_at) / Fold change /veh CAMK2N1 (11719241_x_at) / RFU C5orf56 (11738088_a_at) / Fold change /veh C5orf56 (11738088_a_at) / RFU OLFML3 (11715873_a_at) / Fold change /veh OLFML3 (11715873_a_at) / RFU LOC100653217 /// NTM (11731650_a_at) / Fold change /veh LOC100653217 /// NTM (11731650_a_at) / RFU MAPK11 (11762145_a_at) / Fold change /veh MAPK11 (11762145_a_at) / RFU FIZ1 (11724087_x_at) / Fold change /veh FIZ1 (11724087_x_at) / RFU OASL (11726364_x_at) / Fold change /veh OASL (11726364_x_at) / RFU SOX15 (11748057_x_at) / Fold change /veh SOX15 (11748057_x_at) / RFU CD79A (11719716_a_at) / Fold change /veh CD79A (11719716_a_at) / RFU HIST1H1D (11736915_at) / Fold change /veh HIST1H1D (11736915_at) / RFU CASKIN2 (11723855_a_at) / Fold change /veh CASKIN2 (11723855_a_at) / RFU LOC730098 (11760151_x_at) / Fold change /veh LOC730098 (11760151_x_at) / RFU OR4N2 (11742367_at) / Fold change /veh OR4N2 (11742367_at) / RFU PRRT2 (11749266_a_at) / Fold change /veh PRRT2 (11749266_a_at) / RFU SNX32 (11753110_a_at) / Fold change /veh SNX32 (11753110_a_at) / RFU CDHR5 (11726645_a_at) / Fold change /veh CDHR5 (11726645_a_at) / RFU RCAN1 (11760418_a_at) / Fold change /veh RCAN1 (11760418_a_at) / RFU FAM167A (11723789_a_at) / Fold change /veh FAM167A (11723789_a_at) / RFU FAM26E (11764081_at) / Fold change /veh FAM26E (11764081_at) / RFU ISYNA1 (11749810_s_at) / Fold change /veh ISYNA1 (11749810_s_at) / RFU ACY1 (11761880_at) / Fold change /veh ACY1 (11761880_at) / RFU 11764098_at / Fold change /veh 11764098_at / RFU SAMD14 (11745864_x_at) / Fold change /veh SAMD14 (11745864_x_at) / RFU NPB (11741838_a_at) / Fold change /veh NPB (11741838_a_at) / RFU TMPRSS6 (11731388_a_at) / Fold change /veh TMPRSS6 (11731388_a_at) / RFU KRTAP10-2 (11738614_at) / Fold change /veh KRTAP10-2 (11738614_at) / RFU ARHGAP8 /// PRR5-ARHGAP8 (11727945_x_at) / Fold change /veh ARHGAP8 /// PRR5-ARHGAP8 (11727945_x_at) / RFU KRTAP5-7 /// NADSYN1 (11734609_at) / Fold change /veh KRTAP5-7 /// NADSYN1 (11734609_at) / RFU RASL12 (11751679_a_at) / Fold change /veh RASL12 (11751679_a_at) / RFU CDKN2B (11736163_a_at) / Fold change /veh CDKN2B (11736163_a_at) / RFU PRF1 (11729649_at) / Fold change /veh PRF1 (11729649_at) / RFU, ZNF638 /// ZNF638-IT1 / Fold change vs veh, ZNF638 /// ZNF638-IT1 / RFU, PANK3 / Fold change vs veh, PANK3 / RFU, SH3YL1 / Fold change vs veh, SH3YL1 / RFU, ZEB2 / Fold change vs veh, ZEB2 / RFU, NRIP1 / Fold change vs veh, NRIP1 / RFU, PTTG1IP / Fold change vs veh, PTTG1IP / RFU, CAPN2 / Fold change vs veh, CAPN2 / RFU, MED14 / Fold change vs veh, MED14 / RFU, SNORA58 / Fold change vs veh, SNORA58 / RFU, C1orf63 / Fold change vs veh, C1orf63 / RFU, LRRFIP1 / Fold change vs veh, LRRFIP1 / RFU, NDUFAF7 / Fold change vs veh, NDUFAF7 / RFU, SLC12A2 / Fold change vs veh, SLC12A2 / RFU, IBTK / Fold change vs veh, IBTK / RFU, ESF1 / Fold change vs veh, ESF1 / Fold change vs veh, TMEM50B / RFU, TAOK1 / Fold change vs veh, TAOK1 / RFU, ACBD3 / Fold change vs veh, ACBD3 / RFU, TMA16 / Fold change vs veh, TMA16 / RFU, RWDD3 / Fold change vs veh, RWDD3 / RFU, BCAT1 / Fold change vs veh, BCAT1 / RFU, EDEM3 / Fold change vs veh, EDEM3 / RFU, TMEM33 / Fold change vs veh, TMEM33 / RFU, WDR75 / Fold change vs veh, WDR75 / RFU, AHCTF1 / Fold change vs veh, AHCTF1 / RFU, TFRC / Fold change vs veh, TFRC / RFU, ZDHHC17 / Fold change vs veh, ZDHHC17 / RFU, NOM1 / Fold change vs veh, NOM1 / RFU, ARL8B / Fold change vs veh, ARL8B / RFU, ZBTB11 / Fold change vs veh, ZBTB11 / RFU, TAMM41 / Fold change vs veh, TAMM41 / RFU, KIAA1704 /// LOC100996395 / Fold change vs veh, KIAA1704 /// LOC100996395 / RFU, ING1 / Fold change vs veh, ING1 / RFU, TRMT61B / Fold change vs veh, TRMT61B / RFU, FUBP3 / Fold change vs veh, FUBP3 / RFU, TP53 / Fold change vs veh, TP53 / RFU, TNKS2 / Fold change vs veh, TNKS2 / RFU, ZFP14 / Fold change vs veh, ZFP14 / RFU, ACTR2 / Fold change vs veh, ACTR2 / RFU, PPP3R1 / Fold change vs veh, PPP3R1 / RFU, PIK3R1 / Fold change vs veh, PIK3R1 / RFU, HNRNPA1 / Fold change vs veh, HNRNPA1 / RFU, RNF170 / Fold change vs veh, RNF170 / RFU, ZNF28 / Fold change vs veh, ZNF28 / RFU, RNGTT / Fold change vs veh, RNGTT / RFU, OGT / Fold change vs veh, OGT / RFU, BRD1 / Fold change vs veh, BRD1 / RFU, MARS / Fold change vs veh, MARS / RFU, ZNF655 / Fold change vs veh, ZNF655 / RFU, FAHD1 / Fold change vs veh, FAHD1 / RFU, BDP1 / Fold change vs veh, BDP1 / RFU, LRRCC1 / Fold change vs veh, LRRCC1 / RFU, ARID1A / Fold change vs veh, ARID1A / RFU, ZNF146 / Fold change vs veh, ZNF146 / RFU, ZNF330 / Fold change vs veh, ZNF330 / RFU, GPN3 / Fold change vs veh, GPN3 / RFU, C9orf123 / Fold change vs veh, C9orf123 / RFU, N4BP2L2 / Fold change vs veh, N4BP2L2 / RFU, ARFIP1 / Fold change vs veh, ARFIP1 / RFU, FAM179B / Fold change vs veh, FAM179B / RFU, BCL10 / Fold change vs veh, BCL10 / RFU, UHRF1BP1L / Fold change vs veh, UHRF1BP1L / RFU, BET1 / Fold change vs veh, BET1 / RFU, CNOT2 / Fold change vs veh, CNOT2 / RFU, ZNF268 / Fold change vs veh, ZNF268 / Fold change vs veh, ZNF507 / RFU, DGCR2 / Fold change vs veh, DGCR2 / RFU, WDSUB1 / Fold change vs veh, WDSUB1 / Fold change vs veh, HSP90B1 /// MIR3652 / RFU, ADSS / Fold change vs veh, ADSS / RFU, GK / Fold change vs veh, GK / RFU, ZNF148 / Fold change vs veh, ZNF148 / RFU, TAF9 / Fold change vs veh, TAF9 / RFU, SLC1A5 / Fold change vs veh, SLC1A5 / RFU, SLMO2 / Fold change vs veh, SLMO2 / RFU, ABCC4 / Fold change vs veh, ABCC4 / RFU, LOC101060439 /// RAP1B / Fold change vs veh, LOC101060439 /// RAP1B / RFU, RFX7 / Fold change vs veh, RFX7 / RFU, GTPBP10 / Fold change vs veh, GTPBP10 / RFU, CNEP1R1 / Fold change vs veh, CNEP1R1 / RFU, BIVM-ERCC5 /// ERCC5 / Fold change vs veh, BIVM-ERCC5 /// ERCC5 / RFU, ILF3 / Fold change vs veh, ILF3 / RFU 11762660_at / Fold change /veh 11762660_at / RFU VCAN (11757783_s_at) / Fold change /veh VCAN (11757783_s_at) / RFU DDX43 (11728927_at) / Fold change /veh DDX43 (11728927_at) / RFU KRT8 (11758188_x_at) / Fold change /veh KRT8 (11758188_x_at) / RFU NKD1 (11759106_at) / Fold change /veh NKD1 (11759106_at) / RFU SRD5A1 (11742802_a_at) / Fold change /veh SRD5A1 (11742802_a_at) / RFU TPSAB1 /// TPSB2 (11721975_s_at) / Fold change /veh TPSAB1 /// TPSB2 (11721975_s_at) / RFU GSTM3 (11746129_a_at) / Fold change /veh GSTM3 (11746129_a_at) / RFU IL23R (11737362_x_at) / Fold change /veh IL23R (11737362_x_at) / RFU TMEM51 (11727254_a_at) / Fold change /veh TMEM51 (11727254_a_at) / RFU PIWIL2 (11732686_x_at) / Fold change /veh PIWIL2 (11732686_x_at) / RFU ORM1 (11744905_x_at) / Fold change /veh ORM1 (11744905_x_at) / RFU CCDC152 (11743942_at) / Fold change /veh CCDC152 (11743942_at) / RFU ECM1 (11717891_a_at) / Fold change /veh ECM1 (11717891_a_at) / RFU IL23R (11748794_a_at) / Fold change /veh IL23R (11748794_a_at) / RFU TNFAIP8L3 (11732012_x_at) / Fold change /veh TNFAIP8L3 (11732012_x_at) / RFU MBOAT4 (11741988_at) / Fold change /veh MBOAT4 (11741988_at) / RFU 11764193_at / Fold change /veh 11764193_at / RFU TMEM53 (11763286_at) / Fold change /veh TMEM53 (11763286_at) / RFU MAGEB2 (11727129_at) / Fold change /veh MAGEB2 (11727129_at) / RFU TMEM200A (11744735_a_at) / Fold change /veh TMEM200A (11744735_a_at) / RFU CCDC152 (11751479_a_at) / Fold change /veh CCDC152 (11751479_a_at) / RFU FAM211A (11726209_a_at) / Fold change /veh FAM211A (11726209_a_at) / RFU RGS16 (11746705_a_at) / Fold change /veh RGS16 (11746705_a_at) / RFU VCAN (11755009_s_at) / Fold change /veh VCAN (11755009_s_at) / RFU RHOB (11743442_s_at) / Fold change /veh RHOB (11743442_s_at) / RFU RGS16 (11720943_a_at) / Fold change /veh RGS16 (11720943_a_at) / RFU RGS16 (11720944_at) / Fold change /veh RGS16 (11720944_at) / RFU, VPS4B / Fold change vs veh, VPS4B / RFU, CREB1 / Fold change vs veh, CREB1 / RFU, DNAJC13 / Fold change vs veh, DNAJC13 / RFU, GNAQ / Fold change vs veh, GNAQ / RFU, CDK5R1 / Fold change vs veh, CDK5R1 / RFU, ZRANB3 / Fold change vs veh, ZRANB3 / RFU, CUL4A / Fold change vs veh, CUL4A / RFU, CCNY / Fold change vs veh, CCNY / RFU, UFL1 / Fold change vs veh, UFL1 / RFU, COG3 / Fold change vs veh, COG3 / RFU, DIAPH2 / Fold change vs veh, DIAPH2 / RFU, SKA2 / Fold change vs veh, SKA2 / RFU, AFF3 / Fold change vs veh, AFF3 / RFU, LMF1 / Fold change vs veh, LMF1 / RFU, IPO11 / Fold change vs veh, IPO11 / RFU, DFFB / Fold change vs veh, DFFB / RFU, FOXP1 / Fold change vs veh, FOXP1 / RFU, CARD8 / Fold change vs veh, CARD8 / RFU, STRN3 / Fold change vs veh, STRN3 / RFU, ADK / Fold change vs veh, ADK / RFU, RASSF2 / Fold change vs veh, RASSF2 / RFU, WIPF1 / Fold change vs veh, WIPF1 / RFU, LARP1B / Fold change vs veh, LARP1B / RFU, RASA1 / Fold change vs veh, RASA1 / RFU, RB1 / Fold change vs veh, RB1 / RFU, PPFIA1 / Fold change vs veh, PPFIA1 / RFU, MAT2A / Fold change vs veh, MAT2A / RFU, CCT5 / Fold change vs veh, CCT5 / RFU, WDR92 / Fold change vs veh, WDR92 / RFU, CUX1 / Fold change vs veh, CUX1 / RFU, TTC7A / Fold change vs veh, TTC7A / RFU, TMEM135 / Fold change vs veh, TMEM135 / RFU, DEPTOR / Fold change vs veh, DEPTOR / RFU, CPM / Fold change vs veh, CPM / RFU, DNAJB6 / Fold change vs veh, DNAJB6 / RFU, CACNA2D3 / Fold change vs veh, CACNA2D3 / RFU, DTX4 / Fold change vs veh, DTX4 / RFU, TFCP2 / Fold change vs veh, TFCP2 / RFU, GMCL1 /// GMCL1P1 / Fold change vs veh, GMCL1 /// GMCL1P1 / RFU, AEBP2 / Fold change vs veh, AEBP2 / RFU, SNHG1 /// SNORD22 /// SNORD25 /// SNORD26 /// SNORD27 /// SNORD28 /// SNORD29 /// SNORD31 / Fold change vs veh, SNHG1 /// SNORD22 /// SNORD25 /// SNORD26 /// SNORD27 /// SNORD28 /// SNORD29 /// SNORD31 / Fold change (Aza/veh), C12orf56 (ProbeSet 11735607_a_at) / Fold change (ACY-1035/veh), C12orf56 (ProbeSet 11735607_a_at) / Fold change (Aza/veh), FGFR1OP (ProbeSet 11751329_s_at) / Fold change (ACY-1035/veh), FGFR1OP (ProbeSet 11751329_s_at) / Fold change (Aza/veh), VPS36 (ProbeSet 11739960_a_at) / Fold change (ACY-1035/veh), VPS36 (ProbeSet 11739960_a_at) / RFU SYPL1 (11715823_x_at) / Fold change /veh SYPL1 (11715823_x_at) / RFU IGFBP7 (11715501_s_at) / Fold change /veh IGFBP7 (11715501_s_at) / RFU REEP3 (11722064_at) / Fold change /veh REEP3 (11722064_at) / RFU IGLL1 (11728026_x_at) / Fold change /veh IGLL1 (11728026_x_at): dose or concentration left out as unconfirmed
# Conditions: ProbeSet 11747889_x_at; LIST B
compound,measurement,value
Nc1ncn([C@@H]2O[C@H](CO)[C@@H](O)[C@H]2O)c(=O)n1 [azacitidine],"Fold change vs veh, SH3YL1",0.87
